Earlier results, collected in US11103547B2, “Methods for disrupting biofilms” (priority 2016, dated 2021).

Test system: MRSA biofilm
Conditions: shown previously; positive control

CCCCCCCCCC(=O)N[C@@H](Cc1c[nH]c2ccccc12)C(=O)N[C@H](CC(N)=O)C(=O)N[C@@H](CC(=O)O)C(=O)N[C@@H]1C(=O)NCC(=O)N[C@@H](CCCN)C(=O)N[C@@H](CC(=O)O)C(=O)N[C@H](C)C(=O)N[C@@H](CC(=O)O)C(=O)NCC(=O)N[C@H](CO)C(=O)N[C@@H]([C@H](C)CC(=O)O)C(=O)N[C@@H](CC(=O)c2ccccc2N)C(=O)O[C@@H]1C [Daptomycin]
disruption of biomass biofilm of MRSA: disrupt biomass biofilm of MRSA
